The text below walks through data of PMC4071569, “Investigation of Indolglyoxamide and Indolacetamide Analogues of Polyamines as Antimalarial and Antitrypanosomal Agents” (Marine Drugs, 2014).

Type in all cases: cell-based
In assay [1] the test system is Plasmodium falciparum, NF54 strain, IEF stage. Kind of assay: In vitro antimalarial activity, NF54 drug sensitive strain. The conditions noted are these: for Pf SI (selectivity index for P. falciparum = IC50 L6/IC50 Pf): NF54 strain vs L6. As to the method:
(§1) The in vitro activities against the protozoan parasites T.b. rhodesiense, and P. falciparum and cytotoxicity assessment against L6 cells were determined as reported elsewhere.

The subject of assay [2] is L6 rat skeletal myoblast cell line. In words: Cytotoxicity towards L6 cells. To be noted: read-out: IC50 L6. As to the method:
as §1

The subject of assay [3] is Trypanosoma brucei rhodesiense, STIB 900 strain, trypomastigotes stage. In words: In vitro anti-trypanosomal activity (growth inhibition). The conditions noted are these: Trypanosoma brucei, read-out: IC50 T. b. rhod. As to the method:
as §1

[4] abbreviates: Plasmodium falciparum, NF54 strain, IEF stage, average of two independent assays, read-out: IC50 P. falc.
The mark [5] stands for this setting: L6 rat skeletal myoblast cell line, average of two independent assays.
[6] abbreviates: STIB 900 strain, trypomastigotes, average of two independent assays.
Where [7] appears, read: NF54 strain, IEF stage, average of two independent assays, read-out: IC50 P. falc.

Where two headings read alike, the source gives them in different places.

On to `COc1ccc2c(C(=O)C(=O)NCCCN(CCCCCCCCCCCCN(CCCNC(=O)C(=O)c3c[nH]c4cc(OC)ccc34)C(=O)OC(C)(C)C)C(=O)OC(C)(C)C)c[nH]c2c1` [Compound 23, Di-tert-butyl Dodecane-1,12-diylbis((3-(2-(6-methoxy-1H-indol-3-yl)-2-oxoacetamido)propyl)carbamate)], for which the “Pf SI (selectivity index for P. falciparum = IC50 L6/IC50 Pf)” value in assay [1] is listed as ≥58. For the same molecule, the IC50 was 1900 nM in assay [1] (setting [4]), ≥ 110000 nM in assay [2] (setting [5]) and 62000 nM in assay [3] (setting [6]).
On to `CCN(CC)CCCC(C)Nc1ccnc2cc(Cl)ccc12` (centres unmarked) [Chloroquine, reference compound], for which the IC50 in assay [1] (Plasmodium falciparum, NF54, read-out: IC50 P. falc.) stood at 4 nM.
`COc1cccc2c(C(=O)C(=O)NCCCNCCCCCCCCCCCCNCCCNC(=O)C(=O)c3c[nH]c4c(OC)cccc34)c[nH]c12.O=C(O)C(F)(F)F.O=C(O)C(F)(F)F` [Compound 32, N^1,N^12-Bis(3-(2-(7-methoxy-1H-indol-3-yl)-2-oxoacetamido)propyl)dodecane-1,12-diaminium 2,2,2-trifluoroacetate]: the “Pf SI (selectivity index for P. falciparum = IC50 L6/IC50 Pf)” value in assay [1] worked out at 210. Besides, the values for the IC50 in assay [1] (setting [4]), in assay [2] (setting [5]) and in assay [3] (setting [6]) were 10 nM, 2100 nM and 260 nM, respectively.
Consider `Nc1nc(N)nc(Nc2ccc([As]3SCC(CO)S3)cc2)n1` (centres unmarked) [Melarsoprol, reference compound], for which the IC50 in assay [3] came to 5 nM.
With `COc1ccc2[nH]cc(C(=O)C(=O)NCCCN(CCCCCCCCCCCCN(CCCNC(=O)C(=O)c3c[nH]c4ccc(OC)cc34)C(=O)OC(C)(C)C)C(=O)OC(C)(C)C)c2c1` [Compound 22, Di-tert-butyl Dodecane-1,12-diylbis((3-(2-(5-methoxy-1H-indol-3-yl)-2-oxoacetamido)propyl)carbamate)], the “Pf SI (selectivity index for P. falciparum = IC50 L6/IC50 Pf)” value in assay [1] came out at 53. The IC50 in assay [1] (setting [4]) amounted to 360 nM; in assay [2] (setting [5]) it was 19000 nM; in assay [3] (setting [6]), 5200 nM.
`CC(C)(C)OC(=O)N(CCCCN(CCCNC(=O)Cc1c[nH]c2ccccc12)C(=O)OC(C)(C)C)CCCNC(=O)Cc1c[nH]c2ccccc12` [Compound 33, Di-tert-butyl Butane-1,4-diylbis((3-(2-(1H-indol-3-yl)acetamido)propyl)carbamate)]: the “Pf SI (selectivity index for P. falciparum = IC50 L6/IC50 Pf)” value in assay [1] was 120. For the same molecule, the figures for the IC50 in assay [1] (setting [4]), in assay [2] (setting [5]) and in assay [3] (setting [6]) were 160 nM, 19000 nM and 7100 nM, respectively.
Consider `O=C(NCCCNCCCCNCCCNC(=O)C(=O)c1c[nH]c2cc(Br)ccc12)C(=O)c1c[nH]c2cc(Br)ccc12.O=C(O)C(F)(F)F.O=C(O)C(F)(F)F` [Compound 6, N^1,N^4-Bis(3-(2-(6-bromo-1H-indol-3-yl)-2-oxoacetamido)propyl)butane-1,4-diaminium 2,2,2-trifluoroacetate], for which the “Pf SI (selectivity index for P. falciparum = IC50 L6/IC50 Pf)” value in assay [1] was determined as 21. The IC50 in assay [1] (setting [4]) was found to be 360 nM; in assay [2] (setting [5]) it was 7700 nM.
With `O=C(Cc1c[nH]c2ccccc12)NCCCNCCCCNCCCNC(=O)Cc1c[nH]c2ccccc12.O=C(O)C(F)(F)F.O=C(O)C(F)(F)F` [Compound 36, N^1,N^4-Bis(3-(2-(1H-indol-3-yl)acetamido)propyl)butane-1,4-diaminium 2,2,2-trifluoroacetate], the “Pf SI (selectivity index for P. falciparum = IC50 L6/IC50 Pf)” value in assay [1] is reported as 410. The IC50 amounted to 180 nM in assay [1] (setting [4]), 74000 nM in assay [2] (setting [5]) and 75000 nM in assay [3] (setting [6]).
Take `O=C(NCCCNCCCCNCCCNC(=O)C(=O)c1c[nH]c2ccccc12)C(=O)c1c[nH]c2ccccc12.O=C(O)C(F)(F)F.O=C(O)C(F)(F)F` [Compound 13, N^1,N^4-Bis(3-(2-(1H-indol-3-yl)-2-oxoacetamido)propyl)butane-1,4-diaminium 2,2,2-trifluoroacetate]: the “Pf SI (selectivity index for P. falciparum = IC50 L6/IC50 Pf)” value in assay [1] came out at 500. The IC50 in assay [1] (setting [4]) was 120 nM; in assay [2] (setting [5]), 60000 nM.
For the molecule `COc1ccc2[nH]cc(C(=O)C(=O)NCCCNCCCCCCCCCCCCNCCCNC(=O)C(=O)c3c[nH]c4ccc(OC)cc34)c2c1.O=C(O)C(F)(F)F.O=C(O)C(F)(F)F` [Compound 30, N^1,N^12-Bis(3-(2-(5-methoxy-1H-indol-3-yl)-2-oxoacetamido)propyl)dodecane-1,12-diaminium 2,2,2-trifluoroacetate], the “Pf SI (selectivity index for P. falciparum = IC50 L6/IC50 Pf)” value in assay [1] came out at 85. The IC50 in assay [1] (setting [4]) was 200 nM; in assay [2] (setting [5]), 17000 nM; in assay [3] (setting [6]), 270 nM.
For the molecule `COc1ccc2c(C(=O)C(=O)NCCCNCCCCCCCCCCCCNCCCNC(=O)C(=O)c3c[nH]c4cc(OC)ccc34)c[nH]c2c1.O=C(O)C(F)(F)F.O=C(O)C(F)(F)F` [Compound 31, N^1,N^12-Bis(3-(2-(6-methoxy-1H-indol-3-yl)-2-oxoacetamido)propyl)dodecane-1,12-diaminium 2,2,2-trifluoroacetate], the “Pf SI (selectivity index for P. falciparum = IC50 L6/IC50 Pf)” value in assay [1] is 25. For the same molecule, the figures for the IC50 in assay [1] (setting [4]), in assay [2] (setting [5]) and in assay [3] (setting [6]) were 240 nM, 6000 nM and 180 nM, respectively.
Consider `COc1cccc2c(C(=O)C(=O)NCCCN(CCCCCCCCCCCCN(CCCNC(=O)C(=O)c3c[nH]c4c(OC)cccc34)C(=O)OC(C)(C)C)C(=O)OC(C)(C)C)c[nH]c12` [Compound 24, Di-tert-butyl Dodecane-1,12-diylbis((3-(2-(7-methoxy-1H-indol-3-yl)-2-oxoacetamido)propyl)carbamate)], for which, in assay [1], the “Pf SI (selectivity index for P. falciparum = IC50 L6/IC50 Pf)” value is listed as ≥65. Also, the results for the IC50 in assay [1] (setting [4]), in assay [2] (setting [5]) and in assay [3] (setting [6]) were 1700 nM, ≥ 110000 nM and 63000 nM, respectively.
For `CC(C)(C)OC(=O)N(CCCCCCCCN(CCCNC(=O)Cc1c[nH]c2ccccc12)C(=O)OC(C)(C)C)CCCNC(=O)Cc1c[nH]c2ccccc12` [Compound 34, Di-tert-butyl Octane-1,8-diylbis((3-(2-(1H-indol-3-yl)acetamido)propyl)carbamate)], in assay [1], the “Pf SI (selectivity index for P. falciparum = IC50 L6/IC50 Pf)” value is 17. For the same molecule, the IC50 in assay [1] (setting [4]) was determined as 300 nM; in assay [2] (setting [5]), 5000 nM.
In the case of `O=C(NCCCNCCCCCCCCNCCCNC(=O)C(=O)c1c[nH]c2cc(Br)ccc12)C(=O)c1c[nH]c2cc(Br)ccc12.O=C(O)C(F)(F)F.O=C(O)C(F)(F)F` [Compound 8, N^1,N^8-Bis(3-(2-(6-bromo-1H-indol-3-yl)-2-oxoacetamido)propyl)octane-1,8-diaminium 2,2,2-trifluoroacetate], the “Pf SI (selectivity index for P. falciparum = IC50 L6/IC50 Pf)” value in assay [1] came out at 14. The 50% inhibitory concentration (IC50) in assay [1] (setting [4]) turned out to be 410 nM; in assay [2] (setting [5]), 5600 nM.
Turning to “N^1,N^4-Bis(3-(2-(6-methoxy-1H-indol-3-yl)acetamido)propyl)butane-1,4-diaminium 2,2,2-trifluoroacetate [Compound 15]”, the “Pf SI (selectivity index for P. falciparum = IC50 L6/IC50 Pf)” value in assay [1] came out at 110. In addition, the IC50 in assay [1] (setting [7]) is 500 nM; in assay [2] (setting [5]) it was 54000 nM.
With `O=C(Cc1c[nH]c2ccccc12)NCCCNCCCCCCCCNCCCNC(=O)Cc1c[nH]c2ccccc12.O=C(O)C(F)(F)F.O=C(O)C(F)(F)F` [Compound 37, N^1,N^8-Bis(3-(2-(1H-indol-3-yl)acetamido)propyl)octane-1,8-diaminium 2,2,2-trifluoroacetate], the “Pf SI (selectivity index for P. falciparum = IC50 L6/IC50 Pf)” value in assay [1] is reported as 430. In addition, the IC50 in assay [1] (setting [4]) amounted to 150 nM; in assay [2] (setting [5]), 64000 nM.
Regarding `CC(C)(C)OC(=O)N(CCCCCCCCN(CCCNC(=O)C(=O)c1c[nH]c2cc(Br)ccc12)C(=O)OC(C)(C)C)CCCNC(=O)C(=O)c1c[nH]c2cc(Br)ccc12` [Compound 7, Di-tert-butyl Octane-1,8-diylbis((3-(2-(6-bromo-1H-indol-3-yl)-2-oxoacetamido)propyl)carbamate)], in assay [1], the “Pf SI (selectivity index for P. falciparum = IC50 L6/IC50 Pf)” value is on record as 340. Besides, the IC50 in assay [1] (setting [4]) amounted to 270 nM; in assay [2] (setting [5]), 92000 nM.
For the molecule `O=C(NCCCCNCCCNC(=O)C(=O)c1c[nH]c2cc(Br)ccc12)C(=O)c1c[nH]c2cc(Br)ccc12.O=C(O)C(F)(F)F` [Compound 5, 4-(2-(6-Bromo-1H-indol-3-yl)-2-oxoacetamido)-N-(3-(2-(6-bromo-1H-indol-3-yl)-2-oxoacetamido)propyl)butan-1-aminium 2,2,2-trifluoroacetate], in assay [1], the “Pf SI (selectivity index for P. falciparum = IC50 L6/IC50 Pf)” value stood at 22. The values for the IC50 in assay [1] (setting [4]) and in assay [2] (setting [5]) were 250 nM and 5500 nM, respectively.
Consider `CC(C)(C)OC(=O)N(CCCCCCCCCCCCN(CCCNC(=O)Cc1c[nH]c2ccccc12)C(=O)OC(C)(C)C)CCCNC(=O)Cc1c[nH]c2ccccc12` [Compound 35, Di-tert-butyl Dodecane-1,12-diylbis((3-(2-(1H-indol-3-yl)acetamido)propyl)carbamate)], for which, in assay [1], the “Pf SI (selectivity index for P. falciparum = IC50 L6/IC50 Pf)” value was found to be 56. The IC50 was found to be 800 nM in assay [1] (setting [4]) and 45000 nM in assay [2] (setting [5]).
As to `O=C(Cc1c[nH]c2ccccc12)NCCCNCCCCCCCCCCCCNCCCNC(=O)Cc1c[nH]c2ccccc12.O=C(O)C(F)(F)F.O=C(O)C(F)(F)F` [Compound 38, N^1,N^12-Bis(3-(2-(1H-indol-3-yl)acetamido)propyl)dodecane-1,12-diaminium 2,2,2-trifluoroacetate], the “Pf SI (selectivity index for P. falciparum = IC50 L6/IC50 Pf)” value in assay [1] came out at 160. Moreover, the IC50 in assay [1] (setting [4]) was determined as 120 nM; in assay [2] (setting [5]), 19000 nM.
“N^1,N^4-Bis(3-(2-(5-methoxy-1H-indol-3-yl)acetamido)propyl)butane-1,4-diaminium 2,2,2-trifluoroacetate [Compound 14]”: the “Pf SI (selectivity index for P. falciparum = IC50 L6/IC50 Pf)” value in assay [1] came to 120. In addition, the IC50 in assay [1] (setting [7]) turned out to be 470 nM; in assay [2] (setting [5]), 56000 nM.
For `COc1cc([C@@H]2c3cc4c(cc3[C@H](O)[C@H]3COC(=O)[C@H]23)OCO4)cc(OC)c1OC` [Podophyllotoxin, reference compound], the IC50 in assay [2] (Rattus norvegicus, Myoblast) came to 19 nM.
